Data taken from US9476099B2 (TRUSTEES OF DARTMOUTH COLLEGE, priority 2012, dated 2016).
Values joined by “and” are separate entries in the source; they are usually repeats but may differ in a detail not shown here. Identical values can stand only once.

Tested on: NT2/D1-R1 control and DNMT3B knockdown cells
Assay: Genome-wide expression analysis with PAM clusters, control and DNMT3B knockdown cells (Tables 8-14)
Conditions: sh-Ctrl + aza; 10 nM decitabine, 3 days

**Q.** How did the “ADAMTSL2 NM_014694 expression Mean” value turn out when `Nc1ncn([C@H]2C[C@H](O)[C@@H](CO)O2)c(=O)n1` [aza] was run?
**A.** The value was 295.667.

**Q.** What about the “ADM NM_001124 expression Mean” value of the same molecule?
**A.** Its value is 937.101.

**Q.** And the “AFMID NM_0010109 expression Mean” value?
**A.** The value was 303.389.

**Q.** What about the “AHNAK NM_001620 expression Mean” value of the same molecule?
**A.** Its value is 522.882.

**Q.** What about the “ANAPC13 NM_015391 expression Mean” value of the same molecule?
**A.** Its value is 549.873.

**Q.** What about the “ANXA1 NM_000700 expression Mean” value of the same molecule?
**A.** Its value is 1242.05.

**Q.** And the “ANXA2 NM_0010028 expression Mean” value?
**A.** Its value is 3575.79.

**Q.** What about the “AW972815 expression Mean” value of the same molecule?
**A.** Its value is 1125.31.

**Q.** And the “BAG3 NM_004281 expression Mean” value?
**A.** Its value is 1275.

**Q.** And the “BCL11A NM_022893 expression Mean” value?
**A.** Its value is 399.892.

**Q.** What about the “BIRC5 NM_001168 expression Mean” value of the same molecule?
**A.** The value was 873.507.

**Q.** What about the “BTG2 NM_006763 expression Mean” value of the same molecule?
**A.** The value was 474.998.

**Q.** What about the “C9orf6 NM_017832 expression Mean” value of the same molecule?
**A.** Its value is 333.034.

**Q.** And the “C10orf2 NM_021830 expression Mean” value?
**A.** Its value is 515.45.

**Q.** And the “C10orf58 NM_032333 expression Mean” value?
**A.** Its value is 983.117.

**Q.** What about the “C16orf93 NM_0010149 expression Mean” value of the same molecule?
**A.** The value was 392.581.

**Q.** And the “CA2 NM_000067 expression Mean” value?
**A.** Its value is 678.212.

**Q.** And the “CATSPER2 NM_172097 expression Mean” value?
**A.** The value was 1806.2.

**Q.** What about the “CAV1 NM_001753 expression Mean” value of the same molecule?
**A.** The value was 740.14.

**Q.** What about the “CCND1 NM_053056 expression Mean” value of the same molecule?
**A.** The value was 4666.94.

**Q.** And the “CDKN1A NM_000389 expression Mean” value?
**A.** The value was 1938.97.

**Q.** What about the “CDX1 NM_001804 expression Mean” value of the same molecule?
**A.** Its value is 802.577.

**Q.** And the “CEACAM1 NM_0010249 expression Mean” value?
**A.** Its value is 229.793.

**Q.** And the “CIRH1A NM_032830 expression Mean” value?
**A.** The value was 1971.98.

**Q.** And the “CLCF1 NM_013246 expression Mean” value?
**A.** The value was 340.544.

**Q.** What about the “CLDN10 NM_006984 expression Mean” value of the same molecule?
**A.** Its value is 407.272.

**Q.** And the “CNN3 NM_001839 expression Mean” value?
**A.** The value was 1086.56.

**Q.** And the “COL7A1 NM_000094 expression Mean” value?
**A.** The value was 1054.31.

**Q.** And the “COL17A1 NM_000494 expression Mean” value?
**A.** Its value is 521.166.

**Q.** And the “CRABP2 NM_001878 expression Mean” value?
**A.** The value was 2128.79.

**Q.** What about the “CRIPT NM_014171 expression Mean” value of the same molecule?
**A.** Its value is 613.112.

**Q.** And the “CTNNB1 NM_0010982 expression Mean” value?
**A.** The value was 342.941.

**Q.** What about the “CUEDC1 NM_017949 expression Mean” value of the same molecule?
**A.** Its value is 525.909.

**Q.** And the “CXCL14 NM_004887 expression Mean” value?
**A.** The value was 366.998.

**Q.** What about the “CXXC1 NM_014593 expression Mean” value of the same molecule?
**A.** Its value is 1743.77.

**Q.** What about the “CXorf40A NM_178124 expression Mean” value of the same molecule?
**A.** The value was 324.823.

**Q.** And the “CYR61 NM_001554 expression Mean” value?
**A.** Its value is 634.193.

**Q.** And the “DDX51 NM_175066 expression Mean” value?
**A.** The value was 1671.08.

**Q.** And the “DIMT1L NM_014473 expression Mean” value?
**A.** Its value is 893.36.

**Q.** What about the “DUSP5 NM_004419 expression Mean” value of the same molecule?
**A.** The value was 1627.42.

**Q.** And the “EBI3 NM_005755 expression Mean” value?
**A.** The value was 650.267.

**Q.** What about the “EIF2C2 NM_012154 expression Mean” value of the same molecule?
**A.** The value was 794.459.

**Q.** What about the “ELF3 NM_004433 expression Mean” value of the same molecule?
**A.** The value was 306.008.

**Q.** And the “ELF4 NM_001421 expression Mean” value?
**A.** Its value is 721.011.

**Q.** And the “EMILIN2 NM_032048 expression Mean” value?
**A.** Its value is 650.943.

**Q.** What about the “EOMES NM_005442 expression Mean” value of the same molecule?
**A.** Its value is 387.137.

**Q.** And the “FAM53C NM_016605 expression Mean” value?
**A.** The value was 2860.96.

**Q.** What about the “FAM123B NM_152424 expression Mean” value of the same molecule?
**A.** Its value is 1182.82.

**Q.** What about the “FLJ40504 NM_173624 expression Mean” value of the same molecule?
**A.** The value was 3003.39.

**Q.** What about the “FOXO3 NM_201559 expression Mean” value of the same molecule?
**A.** The value was 639.391.

**Q.** And the “GAD1 NM_000817 expression Mean” value?
**A.** The value was 287.008.

**Q.** And the “GAD1 NM_013445 expression Mean” value?
**A.** The value was 372.485.

**Q.** And the “GALNAC4S-6 NM_015892 expression Mean” value?
**A.** Its value is 704.001.

**Q.** And the “GEMIN4 NM_015721 expression Mean” value?
**A.** Its value is 1411.28.

**Q.** What about the “GLIPR2 NM_022343 expression Mean” value of the same molecule?
**A.** Its value is 792.16.

**Q.** And the “GNL3L NM_019067 expression Mean” value?
**A.** The value was 392.011.

**Q.** What about the “GNL3 NM_206826 expression Mean” value of the same molecule?
**A.** Its value is 1332.63.

**Q.** And the “GPATCH4 NM_182679 expression Mean” value?
**A.** Its value is 1117.44.

**Q.** What about the “GPER NM_0010399 expression Mean” value of the same molecule?
**A.** The value was 305.922.

**Q.** And the “GPR56 NM_201524 expression Mean” value?
**A.** The value was 378.312.

**Q.** What about the “GPR56 NM_201525 expression Mean” value of the same molecule?
**A.** The value was 392.608.

**Q.** And the “GPR177 NM_0010022 expression Mean” value?
**A.** The value was 251.287 and 391.197.

**Q.** What about the “GPR177 NM_024911 expression Mean” value of the same molecule?
**A.** Its value is 515.533.

**Q.** And the “GTF3C6 NM_138408 expression Mean” value?
**A.** The value was 503.701.

**Q.** What about the “H2AFY NM_004893 expression Mean” value of the same molecule?
**A.** The value was 2387.37.

**Q.** And the “HARS NM_002109 expression Mean” value?
**A.** Its value is 1887.22.

**Q.** And the “HCLS1 NM_005335 expression Mean” value?
**A.** The value was 319.822.

**Q.** And the “HES2 NM_019089 expression Mean” value?
**A.** Its value is 310.888.

**Q.** And the “HSPA1A NM_005346 expression Mean” value?
**A.** Its value is 699.362.

**Q.** And the “HSPA8 NM_006597 expression Mean” value?
**A.** Its value is 3448.31.

**Q.** What about the “HSPA8 NM_153201 expression Mean” value of the same molecule?
**A.** Its value is 5257.42.

**Q.** What about the “HSPH1 NM_006644 expression Mean” value of the same molecule?
**A.** Its value is 565.151.

**Q.** What about the “ID3 NM_002167 expression Mean” value of the same molecule?
**A.** Its value is 3392.56.

**Q.** And the “IER3 NM_003897 expression Mean” value?
**A.** Its value is 835.676.

**Q.** And the “IL2RB NM_000878 expression Mean” value?
**A.** Its value is 274.617.

**Q.** And the “ITPRIP NM_033397 expression Mean” value?
**A.** Its value is 346.452.

**Q.** And the “JTV1 NM_006303 expression Mean” value?
**A.** The value was 1876.43.

**Q.** And the “KAT2A NM_021078 expression Mean” value?
**A.** The value was 1965.54.

**Q.** And the “KIAA0101 NM_014736 expression Mean” value?
**A.** Its value is 468.29.

**Q.** What about the “KRT8 NM_002273 expression Mean” value of the same molecule?
**A.** Its value is 3394.59.

**Q.** What about the “LEFTY2 NM_003240 expression Mean” value of the same molecule?
**A.** The value was 1161.57.
